Measurements from patent publication US8586600B2, “Heterocyclic compounds and uses thereof” (Celgene Avilomics Research, Inc., priority 2007, dated 2013).
Read-outs that look alike come from different tables or passages of the source.

Key:
c-KIT kinase [1] = target: T1, c-KIT kinase (Homo sapiens (Human), UniProt P10721); assay: cKit inhibition assay Method C (electrophoretic mobility shift); format: biochemical; details: read-out: c-KIT % Inhibition
Protocol: The reaction was started by adding the ATP and incubating for 1 hour at room temperature. […] Phosphorylated and unphosphorylated substrate was separated by charge using electrophoretic mobility shift. Product formed was compared to control wells to determine inhibition or enhancement of enzyme activity.

c-KIT (V654A) [2] = target: T2, c-KIT (V654A) (Homo sapiens (Human), UniProt P10721, V654A); assay: c-Kit (V654A) Omnia assay with pre-activated enzyme (Method D); format: biochemical; details: [ATP]=100 μM, read-out: Mutant c-KIT (V654A) IC50
T2 sequence (P10721 26-976 V654A): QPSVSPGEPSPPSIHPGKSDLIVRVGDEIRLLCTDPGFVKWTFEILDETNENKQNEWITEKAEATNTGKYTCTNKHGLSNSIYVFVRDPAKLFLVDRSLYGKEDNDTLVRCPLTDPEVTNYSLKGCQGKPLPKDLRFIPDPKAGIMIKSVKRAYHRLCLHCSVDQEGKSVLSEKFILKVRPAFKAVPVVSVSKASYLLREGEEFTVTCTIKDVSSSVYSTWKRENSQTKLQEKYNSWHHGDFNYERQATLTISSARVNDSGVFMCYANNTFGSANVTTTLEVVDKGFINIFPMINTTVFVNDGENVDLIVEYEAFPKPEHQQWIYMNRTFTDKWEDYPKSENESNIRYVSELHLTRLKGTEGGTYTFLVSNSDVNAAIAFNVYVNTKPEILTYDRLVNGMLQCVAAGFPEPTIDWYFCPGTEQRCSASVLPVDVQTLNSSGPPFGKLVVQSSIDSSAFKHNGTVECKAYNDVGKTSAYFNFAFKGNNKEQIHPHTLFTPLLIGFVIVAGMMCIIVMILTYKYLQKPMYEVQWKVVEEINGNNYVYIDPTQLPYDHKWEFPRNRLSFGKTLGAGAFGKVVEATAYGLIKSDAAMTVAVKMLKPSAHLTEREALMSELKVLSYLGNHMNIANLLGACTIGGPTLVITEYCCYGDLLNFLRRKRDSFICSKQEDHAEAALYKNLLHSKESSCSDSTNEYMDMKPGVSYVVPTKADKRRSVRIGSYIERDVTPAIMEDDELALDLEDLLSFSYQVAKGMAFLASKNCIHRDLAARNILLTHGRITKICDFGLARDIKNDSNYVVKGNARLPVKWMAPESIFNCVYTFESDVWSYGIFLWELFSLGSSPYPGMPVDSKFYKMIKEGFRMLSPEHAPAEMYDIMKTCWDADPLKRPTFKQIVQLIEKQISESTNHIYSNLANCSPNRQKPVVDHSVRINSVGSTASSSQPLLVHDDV
Protocol: 10× enzyme/ATP stocks were pre-incubated for 30 min at room temperature to pre-activate each enzyme prior to compound exposure. […] Kinase reactions were started with the addition of 45 μL of the Y9 or Y12-Sox peptide substrate and monitored every 30-90 seconds for 60 minutes at λex360/λem485 in a Synergy^4 plate reader from BioTek (Winooski, Vt.).

c-KIT (V654A) [3] = target: T2, c-KIT (V654A); assay: c-Kit (V654A) Omnia assay for potency assessment (Method E); format: biochemical; details: [ATP]=220 μM, read-out: Mutant c-KIT (V654A) IC50 Apparent
Protocol: (§1) Kinase reactions were started with the addition of 45 μL of the Y9 or Y12-Sox peptide substrate and monitored every 30-90 seconds for 60 minutes at λex360/λem485 in a Synergy^4 plate reader from BioTek (Winooski, Vt.).

c-KIT (T670I) = c-KIT (T670I) (Homo sapiens (Human), UniProt P10721, T670I); assay: c-Kit (T670I) Omnia assay for potency assessment (Method E); format: biochemical; details: [ATP]=220 μM, read-out: Mutant c-KIT (T670I) IC50 Apparent
c-KIT (T670I), sequence (P10721 26-976 T670I): as the sequence (P10721 26-976 V654A) above, with A629V, T645I counted along it
Protocol: as §1

PDGFR-α = PDGFR-α (Homo sapiens (Human), UniProt P16234); assay: PDGFR inhibition assay Method B (Z'-LYTE biochemical assay); details: compound at 1 μM
PDGFR-α, sequence (P16234 24-1089): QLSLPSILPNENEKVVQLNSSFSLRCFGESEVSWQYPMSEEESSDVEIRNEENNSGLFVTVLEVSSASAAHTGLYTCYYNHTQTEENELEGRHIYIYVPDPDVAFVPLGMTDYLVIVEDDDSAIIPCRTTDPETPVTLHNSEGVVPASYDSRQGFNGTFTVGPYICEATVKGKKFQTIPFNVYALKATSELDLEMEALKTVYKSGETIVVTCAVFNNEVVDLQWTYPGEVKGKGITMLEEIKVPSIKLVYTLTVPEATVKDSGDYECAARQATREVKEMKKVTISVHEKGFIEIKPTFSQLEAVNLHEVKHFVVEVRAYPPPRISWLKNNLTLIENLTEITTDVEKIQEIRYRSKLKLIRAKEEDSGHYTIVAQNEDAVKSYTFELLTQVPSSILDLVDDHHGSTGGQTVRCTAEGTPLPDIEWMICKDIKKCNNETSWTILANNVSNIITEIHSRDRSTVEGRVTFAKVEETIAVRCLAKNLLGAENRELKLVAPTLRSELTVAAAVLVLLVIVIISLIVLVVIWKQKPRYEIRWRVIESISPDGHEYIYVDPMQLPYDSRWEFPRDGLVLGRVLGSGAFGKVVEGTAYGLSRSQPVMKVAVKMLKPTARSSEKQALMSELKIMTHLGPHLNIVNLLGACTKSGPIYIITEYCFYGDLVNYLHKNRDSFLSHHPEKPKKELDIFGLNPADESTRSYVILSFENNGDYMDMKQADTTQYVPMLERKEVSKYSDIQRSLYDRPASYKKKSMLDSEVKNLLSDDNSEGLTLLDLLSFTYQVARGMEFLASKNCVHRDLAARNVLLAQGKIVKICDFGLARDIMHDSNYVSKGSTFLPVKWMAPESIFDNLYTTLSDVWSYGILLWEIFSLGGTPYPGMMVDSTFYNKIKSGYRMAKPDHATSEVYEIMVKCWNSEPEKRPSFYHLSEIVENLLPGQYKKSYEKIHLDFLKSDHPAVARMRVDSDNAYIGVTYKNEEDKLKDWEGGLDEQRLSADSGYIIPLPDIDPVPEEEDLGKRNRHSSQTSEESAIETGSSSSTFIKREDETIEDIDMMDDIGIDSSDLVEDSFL
From the text: The Z'-LYTE™ biochemical assay employs a fluorescence-based, coupled-enzyme format and is based on the differential sensitivity of phosphorylated and non-phosphorylated peptides to proteolytic cleavage.

c-KIT kinase [4] = target: T1, c-KIT kinase; assay: c-KIT mass spectral analysis of tryptic digest (MALDI-TOF); format: binding; details: 3 hours incubation at 10× excess of compound
Protocol: Iodoacetamide was used as the alkylating agent after compound incubation. […] For tryptic digests a 5 μl aliquot (14 pmols) was diluted with 10 ul of 0.1% TFA prior to micro C18 Zip Tipping directly onto the MALDI target using alpha cyano-4-hydroxy cinnamic acid as the matrix (5 mg/ml in 0.1% TFA:acetonitrile 50:50).
The tryptic digest was analyzed by mass spectrometer (MALDI-TOF).

T1 sequence (P10721 26-976): as the sequence (P10721 26-976 V654A) above, with A629V counted along it

Compound `Cc1ccc(NC(=O)c2ccc(NC(=O)/C=C/CN(C)C)cc2)cc1Nc1nccc(-c2cccnc2)n1` [II-5] has an inhibition at 1 µM (c-KIT kinase [1]; compound at 1 μM, 300 μM ATP) of 66%.
`Cc1ccc(NC(=O)c2ccc(NS(=O)(=O)c3cnccc3Cl)cc2)cc1Nc1nccc(-c2cccnc2)n1` [II-40] gave an IC50 (c-KIT (V654A) [2]) of 10000 nM.
Compound `Cc1ccc(NC(=O)c2ccc(NC(=O)COC(=O)c3c(Cl)cccc3Cl)cc2)cc1Nc1nccc(-c2cccnc2)n1` [II-26] has an inhibition at 1 µM (c-KIT kinase [1]; compound at 1 μM, 300 μM ATP) of 94%.
Compound `Cc1ccc(C(=O)Nc2ccc(NC(=O)/C=C/CN(C)C)c(C(F)(F)F)c2)cc1Nc1nccc(-c2cccnc2)n1` [III-6] has an IC50 (c-KIT (V654A) [2]) of 3990 nM, an IC50 (c-KIT (V654A) [3]) of 216 nM and an IC50 (c-KIT (T670I)) of 1570 nM.
With `Cc1ccc(NC(=O)c2ccc(NC(=O)/C=C/CN(C)C)c(C(F)(F)F)c2)cc1Nc1nccc(-c2cccnc2)n1` [II-55] the IC50 (c-KIT (V654A) [2]) was 9150 nM.
`C=CC(=O)NCc1ccc(C(=O)Nc2ccc(C)c(Nc3nccc(-c4cccnc4)n3)c2)cc1` [II-6, 4-(Acryloylaminomethyl)-N-[4-methyl-3-(4-pyridin-3-ylpyrimidin-2-ylamino)phenyl]benzamide] was tested, and the inhibition at 1 µM (c-KIT kinase [1]; compound at 1 μM, 300 μM ATP) was 91%.
Work on `Cc1ccc(NC(=O)c2ccc(NC(=O)C(C)Cl)cc2)cc1Nc1nccc(-c2cccnc2)n1` (centres unmarked) [II-54] yielded an IC50 (c-KIT (V654A) [2]) of 10000 nM.
`Cc1ccc(NC(=O)c2ccc(NC(=O)CCl)cc2)cc1Nc1nccc(-c2cccnc2)n1` [II-53] gave an IC50 (c-KIT (V654A) [2]) of 937 nM and an IC50 (c-KIT (V654A) [3]) of 260 nM.
`Cc1ccc(NC(=O)c2ccc(NS(=O)(=O)c3ccc(Cl)nc3)cc2)cc1Nc1nccc(-c2cccnc2)n1` [II-41] was tested, and the IC50 (c-KIT (V654A) [3]) was 173 nM.
Work on `C/C=C/C(=O)Nc1ccc(C(=O)Nc2ccc(C)c(Nc3nccc(-c4cccnc4)n3)c2)cc1` [II-4] yielded an inhibition at 1 µM (PDGFR-α) of 28%.
`C=CC(=O)Nc1ccc(C(=O)Nc2ccc(C)c(Nc3nccc(-c4cccnc4)n3)c2)cc1C(F)(F)F` [II-2] showed an IC50 (c-KIT (V654A) [3]) of 83 nM.
For `Cc1ccc(NC(=O)c2ccc(CN3C(=O)C=CC3=O)cc2)cc1Nc1nccc(-c2cccnc2)n1` [II-8, 4-(2,5-Dioxo-2,5-dihydropyrrol-1-ylmethyl)-N-[4-methyl-3-(4-pyridin-3-yl-pyrimidin-2-ylamino)-phenyl]benzamide], the inhibition at 1 µM (c-KIT kinase [1]; compound at 1 μM, 300 μM ATP) was 78%.
For `C=CC(=O)Nc1ccc2cc(C(=O)Nc3ccc(C)c(Nc4nccc(-c5cccnc5)n4)c3)ccc2c1` [II-44, 6-Acryloylaminonaphthalene-2-carboxylic acid[4-methyl-3-(4-pyridin-3-ylpyrimidin-2-ylamino)phenyl]amide], the inhibition at 1 µM (c-KIT kinase [1]) was 95%.
`Cc1ccc(C(=O)Nc2ccc(NC(=O)CCl)c(C(F)(F)F)c2)cc1Nc1nccc(-c2cccnc2)n1` [III-14] was tested, and the “covalent modification of c-KIT (mass spectral analysis)” value (c-KIT kinase [4]) was “covalently bound to c-KIT protein at two target cystein residues: Cys808 (minor) and Cys788 (major)”.
